Some results are limits rather than exact numbers.

The results in this text go back to US20240148744A1 (Celgene Corporation, priority 2021, published 2024).

The subject of test [1] is Onchocerca gutturosa adult male worms. Briefly: Onchocerca gutturosa in vitro screening model: adult worm motility score and MTT/formazan viability. Format: cell-based. Particulars: read-out: O. gutt Activity class.
The subject of another test is Dirofilaria immitis. Briefly: Heartworm screen Dirofilaria immitis (stage DiMF/DiL4 not specified in the tables). It counts as cell-based. The note with it: read-out: D. immitis Activity class.

Take `Cc1cccnc1S(=O)(=O)Nc1cccc2c(C(F)(F)F)ccnc12` [Compound 13, 3-methyl-N-(4-(trifluoro-methyl)quin-olin-8-yl)pyr-idine-2-sulfonamide]: the values for the IC50 (in test [1]; in the test on Dirofilaria immitis) were below 200 nM and 200 to 500 nM, respectively.
For `COc1ccnc2c(NS(=O)(=O)c3ncccc3C)cccc12` [Compound 14, N-(4-meth-oxyquinolin-8-yl)-3-meth-ylpyridine-2-sulfonamide], in that order: 500 to 5000 nM and 500 to 5000 nM.
For `Cc1cccnc1S(=O)(=O)Nc1cccc2c(C)ccnc12` [Compound 15, 3-methyl-N-(4-methyl-quinolin-8-yl)pyridine-2-sulfonamide], in that order: below 200 nM and 500 to 5000 nM.
In the case of `Cc1cccnc1S(=O)(=O)Nc1c(OCC2CC2)ccc2cccnc12` [Compound 16, N-(7-(cyclo-propylmeth-oxy)quinolin-8-yl)-3-meth-ylpyridine-2-sulfonamide], the results for the IC50 (in test [1]; in the test on Dirofilaria immitis) were 500 to 5000 nM and below 200 nM, respectively.
For `Cc1cccnc1S(=O)(=O)Nc1c(C2CC2)ccc2cccnc12` [Compound 17, N-(7-cyclo-propylquin-olin-8-yl)-3-methylpyr-idine-2-sulfonamide], in that order: 200 to 500 nM and 200 to 500 nM.
Turning to `Cc1cccnc1S(=O)(=O)Nc1c(N2CCOCC2)ccc2cccnc12` [Compound 18, 3-methyl-N-(7-morpho-linoquinolin-8-yl)pyridine-2-sulfonamide], the IC50 (in test [1]; with Dirofilaria immitis) was 200 to 500 nM in each case.
In the case of `Cc1cccnc1S(=O)(=O)Nc1cccc2cc(N3CCOCC3)cnc12` [Compound 21, 3-methyl-N-(3-morpho-linoquinolin-8-yl)pyridine-2-sulfonamide], the IC50 in test [1] is below 200 nM; in the test on Dirofilaria immitis it was 500 to 5000 nM.
Consider `Cc1cccnc1S(=O)(=O)Nc1cccc2ccc(C3CC3)nc12` [Compound 26, N-(2-cyclo-propylquin-olin-8-yl)-3-methylpyr-idine-2-sulfonamide], for which the IC50 (in test [1]; in the test on Dirofilaria immitis) was 500 to 5000 nM throughout.
Take `Cc1cccnc1S(=O)(=O)Nc1cccc2c(C3CC3)ccnc12` [Compound 27, N-(4-cyclo-propylquin-olin-8-yl)-3-methylpyr-idine-2-sulfonamide]: the IC50 (in test [1]; in the test on Dirofilaria immitis) was 500 to 5000 nM throughout.
Take `Cc1cccnc1S(=O)(=O)Nc1cccc2c(OCC3CC3)ccnc12` [Compound 28, N-(4-(cyclo-propylmeth-oxy)quinolin-8-yl)-3-meth-ylpyridine-2-sulfonamide]: the IC50 (in test [1]; in the test with Dirofilaria immitis) was 500 to 5000 nM throughout.
On to `Cc1cccnc1S(=O)(=O)Nc1cccc2cc(C3CC3)cnc12` [Compound 29, N-(3-cyclo-propylquin-olin-8-yl)-3-methylpyr-idine-2-sulfonamide], for which the IC50 (in test [1]; in the test with Dirofilaria immitis) was 500 to 5000 nM in each case.
With `Cc1cccnc1S(=O)(=O)Nc1cccc2c(-c3ccccc3)ccnc12` [Compound 30, 3-methyl-N-(4-phenyl-quinolin-8-yl)pyridine-2-sulfonamide], the IC50 (in test [1]; in the test with Dirofilaria immitis) was 500 to 5000 nM in each case.
For the molecule `Cc1cc(NS(=O)(=O)c2nccn2C(C)C)c2ncccc2c1` [Compound 35], the IC50 (in test [1]; in the test with Dirofilaria immitis) was 200 to 500 nM in each case.
As for `CN(C)c1cccnc1S(=O)(=O)Nc1cccc2c1N(C1CC1)CCC2` [Compound 42, N-(1-cyclo-propyl-1,2,3,4-tetra-hydroquin-olin-8-yl)-3-(dimethyl-amino)pyr-idine-2-sulfonamide], the IC50 (in test [1]; in the test on Dirofilaria immitis) was 500 to 5000 nM throughout.
For the molecule `CN(C)c1cccnc1S(=O)(=O)Nc1cccc2c1NCCC2` [Compound 45, 3-(dimethyl-amino)-N-(1,2,3,4-tetra-hydroquin-olin-8-yl)-pyridine-2-sulfonamide], the IC50 (in test [1]; in the test on Dirofilaria immitis) was 500 to 5000 nM each time.
Regarding `O=S(=O)(Nc1ccc(F)c2cccnc12)c1ncccc1C1CC1` [Compound 48, 3-cyclo-propyl-N-(5-fluoroquin-olin-8-yl)-pyridine-2-sulfonamide], the IC50 was below 200 nM in test [1] and 500 to 5000 nM in the test with Dirofilaria immitis.
For the molecule `Cc1cnc(C)c(S(=O)(=O)Nc2c(Cl)ccc3cccnc23)n1` [Compound 53, N-(7-chloro-quinolin-8-yl)-3,6-dimethyl-pyrazine-2-sulfonamide], the IC50 (in test [1]; in the test on Dirofilaria immitis) was 500 to 5000 nM throughout.
Turning to `Cc1cccnc1S(=O)(=O)Nc1cccc2c1N(C)CCC2` [Compound 55, 3-methyl-N-(1-methyl-1,2,3,4-tetra-hydroquin-olin-8-yl)-pyridine-2-sulfonamide], the IC50 (in test [1]; with Dirofilaria immitis) was 500 to 5000 nM each time.
On to `Cc1ccc(S(=O)(=O)Nc2ccc(C)c3cccnc23)nc1` [Compound 58, 5-methyl-N-(5-methyl-quinolin-8-yl)pyridine-2-sulfonamide], for which the IC50 in test [1] lay in the range of 200 to 500 nM; in the test with Dirofilaria immitis it was 500 to 5000 nM.
For `CC(C)c1cccnc1S(=O)(=O)Nc1c(Cl)ccc2cccnc12` [Compound 68, N-(7-chloro-quinolin-8-yl)-3-iso-propylpyr-idine-2-sulfonamide], in that order: below 200 nM and 500 to 5000 nM.
For `N#Cc1cccc(S(=O)(=O)Nc2ccc(F)c3cccnc23)c1` [Compound 72, 3-cyano-N-(5-fluoroquin-olin-8-yl)ben-zenesulfon-amide], in that order: below 200 nM and 500 to 5000 nM.
For `O=S(=O)(Nc1c(Cl)ccc2cccnc12)c1ncccc1Cl` [Compound 73, 3-chloro-N-(7-chloro-quinolin-8-yl)pyridine-2-sulfonamide], in that order: below 200 nM and 500 to 5000 nM.
With `Cc1nccnc1S(=O)(=O)Nc1ccc(N2CCOCC2)c2cccnc12` [Compound 75, 3-methyl-N-(5-morpho-linoquinolin-8-yl)pyrazine-2-sulfonamide], the IC50 was below 200 nM in test [1] and 500 to 5000 nM in the test on Dirofilaria immitis.
For `CN(C)c1nccnc1S(=O)(=O)Nc1c(Cl)ccc2cccnc12` [Compound 76, N-(7-chloro-quinolin-8-yl)-3-(dimethyl-amino)pyr-azine-2-sulfonamide], in that order: 500 to 5000 nM and 500 to 5000 nM.
Turning to `CC(C)n1nccc1S(=O)(=O)Nc1c(Cl)ccc2cccnc12` [Compound 77, N-(7-chloro-quinolin-8-yl)-1-iso-propyl-1H-pyrazole-5-sulfonamide], the results for the IC50 (in test [1]; in the test on Dirofilaria immitis) were 200 to 500 nM and 500 to 5000 nM, respectively.
For `N#Cc1cccc(S(=O)(=O)Nc2ccc(N3CCOCC3)c3cccnc23)c1` [Compound 80, 3-cyano-N-(5-morpho-linoquinolin-8-yl)ben-zenesulfon-amide], the IC50 in test [1] was below 200 nM; in the test with Dirofilaria immitis, 500 to 5000 nM.
As to `CCn1ccnc1S(=O)(=O)Nc1ccc(C)c2cccnc12` [Compound 83, 1-ethyl-N-(5-methylquin-olin-8-yl)-1H-imidazole-2-sulfonamide], the IC50 in test [1] was below 200 nM; with Dirofilaria immitis, 200 to 500 nM.
For `CCn1ccnc1S(=O)(=O)Nc1c(OC)ccc2cccnc12` [Compound 84, 1-ethyl-N-(7-methoxyquin-olin-8-yl)-1H-imidazole-2-sulfonamide], in that order: below 200 nM and 200 to 500 nM.
Consider `CCn1ccnc1S(=O)(=O)Nc1cccc2cc(OC)cnc12` [Compound 86, 1-ethyl-N-(3-methoxyquin-olin-8-yl)-1H-imidazole-2-sulfonamide], for which the values for the IC50 (in test [1]; with Dirofilaria immitis) were below 200 nM and 200 to 500 nM, respectively.
Consider `Cc1ccc(S(=O)(=O)Nc2cccc3cc(F)cnc23)nc1` [Compound 87, N-(3-fluoro-quinolin-8-yl)-5-methyl-pyridine-2-sulfonamide], for which the IC50 in test [1] was below 200 nM; in the test with Dirofilaria immitis, 200 to 500 nM.
For `Cc1ccc(S(=O)(=O)Nc2cc(F)cc3cccnc23)nc1` [Compound 88, N-(6-fluoro-quinolin-8-yl)-5-methyl-pyridine-2-sulfonamide], in that order: 500 to 5000 nM and 500 to 5000 nM.
For `O=S(=O)(Nc1c(Cl)ccc2cccnc12)c1ncccc1F` [Compound 98, N-(7-chloro-quinolin-8-yl)-3-fluoro-pyridine-2-sulfonamide], the values for the IC50 (in test [1]; in the test on Dirofilaria immitis) were below 200 nM and 500 to 5000 nM, respectively.
In the case of `CN(C)c1cccnc1S(=O)(=O)Nc1c(Cl)ccc2cccnc12` [Compound 99, N-(7-chloro-quinolin-8-yl)-3-(dimethyl-amino)pyridine-2-sulfonamide], the IC50 (in test [1]; with Dirofilaria immitis) was 500 to 5000 nM in each case.
`Cc1cccnc1S(=O)(=O)Nc1c(Cl)ccc2cccnc12` [Compound 100, N-(7-chloro-quinolin-8-yl)-3-methylpyr-idine-2-sulfon-amide]: the IC50 was below 200 nM in test [1] and 500 to 5000 nM with Dirofilaria immitis.
As to `CCn1ccnc1S(=O)(=O)Nc1c(C)ccc2cccnc12` [Compound 102, 1-ethyl-N-(7-methylquin-olin-8-yl)-1H-imidazole-2-sulfonamide], the IC50 in test [1] is below 200 nM; in the test with Dirofilaria immitis it was 200 to 500 nM.
For `CCn1ccnc1S(=O)(=O)Nc1cc(C)cc2cccnc12` [Compound 103, 1-ethyl-N-(6-methylquin-olin-8-yl)-1H-imidazole-2-sulfonamide], in that order: 500 to 5000 nM and 200 to 500 nM.
For `CCn1ccnc1S(=O)(=O)Nc1cccc2cc(C)cnc12` [Compound 105, 1-ethyl-N-(3-methylquin-olin-8-yl)-1H-imidazole-2-sulfonamide], in that order: below 200 nM and 500 to 5000 nM.
Regarding `CCn1ccnc1S(=O)(=O)Nc1cccc2ccc(C)nc12` [Compound 106, 1-ethyl-N-(2-methylquin-olin-8-yl)-1H-imidazole-2-sulfonamide], the IC50 in test [1] was in the range of 500 to 5000 nM; with Dirofilaria immitis, 200 to 500 nM.
In the case of `CCn1ccnc1S(=O)(=O)Nc1cc(F)cc2cccnc12` [Compound 107, 1-ethyl-N-(6-fluoroquinolin-8-yl)-1H-imidazole-2-sulfonamide], the IC50 in test [1] was below 200 nM; in the test with Dirofilaria immitis it was 200 to 500 nM.
With `CCn1ccnc1S(=O)(=O)Nc1cc(C(=O)c2ccccc2)cc2cccnc12` [Compound 297, N-(6-benzoylquinolin-8-yl)-1-ethyl-1H-imidazole-2-sulfonamide], the IC50 in the test on Dirofilaria immitis is 200 to 500 nM.
